Reference: PMC11206828, “Catalytic Differences between Flavohemoglobins of Giardia intestinalis and E. coli” (Pathogens, 2024)
“Also recorded” adds a separate entry of the source. Like-named read-outs stand apart in the source and are kept apart here.

Legend:
[1] = biological target: T1, Giardia flavohemoglobin (gFlHb) (Giardia intestinalis, UniProt E2RTZ4); test: biochemical
T1 sequence (E2RTZ4 1-458): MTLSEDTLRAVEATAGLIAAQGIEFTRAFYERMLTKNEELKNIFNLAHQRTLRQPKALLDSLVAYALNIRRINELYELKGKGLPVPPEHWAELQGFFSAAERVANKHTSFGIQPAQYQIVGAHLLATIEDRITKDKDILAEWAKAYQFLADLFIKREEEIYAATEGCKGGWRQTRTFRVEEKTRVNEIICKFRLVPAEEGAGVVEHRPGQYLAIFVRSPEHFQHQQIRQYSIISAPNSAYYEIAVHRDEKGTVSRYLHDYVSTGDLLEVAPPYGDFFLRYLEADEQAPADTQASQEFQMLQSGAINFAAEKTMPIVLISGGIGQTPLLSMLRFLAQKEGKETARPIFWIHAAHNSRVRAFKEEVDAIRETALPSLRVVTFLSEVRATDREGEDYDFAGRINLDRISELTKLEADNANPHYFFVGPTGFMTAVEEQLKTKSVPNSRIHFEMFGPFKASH
Experimental: To determine NOD activity, Michaelis constant, and enzyme inhibition, rate assays were performed on a World Precision Instruments free radical analyzer (WPI, Sarasota, FL, USA) equipped with an NO-sensitive electrode and a temperature probe, connected to an analog digital converter controlled by Labscribe software, version 4 (iWorx, Dover, NH, USA).
Assays were conducted on a 6 mL scale in cropped 50 mL Falcon tubes in a buffer containing 0.1 M Bis-Tris (pH 6.5) and 100 μM NADH. To minimize protein adhesion to the walls of the chamber, 0.25 mg/mL bovine serum albumin (BSA; Fisher Scientific, Ottawa, ON, Canada) was added. […] Reactions were run at 37 °C in a stirred cell block heater with a four-placed machined aluminum block that matched the taper of the Falcon tubes. With this block arrangement up to four assay solutions could be warmed to the desired temperature beforehand. Upon thermal equilibration to 37 °C, the NO donor compound PROLI-NONOate (Cayman Chemical, Ann Arbor, MI, USA) prepared in 10 mM NaOH was added; 2 moles of NO are released per mole of donor. At the peak of NO release, which occurred within several seconds, flavohemoglobin and FAD were added to a final concentration of 2 nM and 10 nM, respectively. NOD activity was measured as the initial rate of NO signal decrease over the first 15 to 30 s of the reaction. […] Rate data were fitted to the Michaelis–Menten equation by nonlinear regression using Graphpad Prism software, version 9.4.1 (Dotmatics, Boston MA, USA).
(§1) The inhibitor was included in the assay solution before the addition of PROLI-NONOate. Inhibitors were also preincubated in the enzyme stock solutions at the same concentration. […] All inhibition experiments were done using the same enzyme preparations. Each assay at a particular concentration of inhibitor was measured in triplicate or more. […] To determine inhibition constants Ki, rate data obtained at different inhibitor concentrations were fit to the equation for non-competitive inhibition nonlinear regression (Equation (1)) using Graphpad Prism software. (1) v=Vmax/(Km,NO+[NO])1+[I]/Ki

[2] = biological target: T2, E. coli flavohemoglobin (Hmp) (Escherichia coli, UniProt P24232); test: Nitric oxide dioxygenase (NOD) inhibition assay, Hmp; assay type: biochemical; conditions: for Ki / TN (turnover number from the inhibition fit), Hmp: pH 6.5, 37 °C
Experimental: as §1

[3] = biological target: T1, Giardia flavohemoglobin (gFlHb); test: NOD activity and Michaelis constants, gFlHb; assay type: biochemical; conditions: pH 6.5, 37 °C
[4] = biological target: T2, E. coli flavohemoglobin (Hmp); set-up: method as in PMID 10777548; conditions: 37 °C and pH 7; cited from earlier work
[5] = biological target: ferric gFlHb (Giardia intestinalis, UniProt E2RTZ4); conditions: read-out: Binding constant KD, ferric gFlHb; optical titration, 0.1 M Bis-Tris pH 6.5, 3.5 μM flavohemoglobin, nitrite 0 to 750 μM
Experimental: (§2) Titrations of ferric gFlHb and Hmp were performed in 0.1 M Bis-Tris buffer (BioShop, Burlington, ON, Canada) pH 6.5 on a Cary 400 Bio UV-visible spectrophotometer (Agilent Technologies, Mississauga, ON, Canada).

[6] = biological target: ferric Hmp (Escherichia coli, UniProt P24232); conditions: optical titration, 0.1 M Bis-Tris pH 6.5
Experimental: as §2

[7] = biological target: T1, Giardia flavohemoglobin (gFlHb); conditions: cited from earlier work
[8] = pH 6.5, 37 °C, 100 μM NADH, 1 μM NO
[9] = pH 6.5, 37 °C, 100 μM NADH, 1 μM NO, imidazole and nitrite: Ki of the inhibitor-sensitive phase of a biphasic fit, read-out: Nitric oxide dioxygenase inhibition constant Ki, gFlHb

T2 sequence (P24232 whole entry): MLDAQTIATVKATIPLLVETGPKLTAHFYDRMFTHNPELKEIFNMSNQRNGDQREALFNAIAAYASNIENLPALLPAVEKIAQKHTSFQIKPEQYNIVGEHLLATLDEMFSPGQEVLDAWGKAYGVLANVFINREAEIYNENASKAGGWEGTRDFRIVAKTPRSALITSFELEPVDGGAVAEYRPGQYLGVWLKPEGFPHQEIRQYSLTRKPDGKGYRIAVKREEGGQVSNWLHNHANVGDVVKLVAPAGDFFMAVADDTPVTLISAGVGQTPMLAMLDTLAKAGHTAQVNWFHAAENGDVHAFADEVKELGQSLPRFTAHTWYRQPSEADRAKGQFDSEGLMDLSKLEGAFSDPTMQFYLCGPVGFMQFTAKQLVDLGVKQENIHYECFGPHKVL
Sequence of ferric Hmp (P24232 whole entry): as above

Compound: Cn1ccnc1 [1-methylimidazole]
- Ki [1]: 1200 ± 300 µM
- Ki ([1]; Inhibition constant, gFlHb (bound), NOD inhibition, pH 6.5, 37 °C): > 1000 µM
- TN (turnover number from the inhibition fit), gFlHb [1, 8]: 25 ± 1 s⁻¹
- Ki ([2]; Inhibition constant, Hmp (bound), NOD inhibition): > 1000 µM
- Ki ([2]; Nitric oxide dioxygenase inhibition constant Ki, Hmp, 100 μM NADH, 1 μM NO, imidazole: Ki of the inhibitor-sensitive phase of a biphasic fit): 1400 ± 250 µM
- TN (turnover number from the inhibition fit), Hmp ([2]; 100 μM NADH, 1 μM NO): 38 ± 2 s⁻¹

Compound: c1c[nH]cn1 [Imidazole, imidazole]
- TN (turnover number from the inhibition fit), gFlHb [1, 8]: 22 ± 1 s⁻¹
- Ki [1, 9]: 20 ± 6 µM
- TN (turnover number from the inhibition fit), Hmp ([2]; 100 μM NADH, 1 μM NO): 33 ± 1 s⁻¹
- Ki ([2]; read-out: Nitric oxide dioxygenase inhibition constant Ki, Hmp, 100 μM NADH, 1 μM NO, imidazole: Ki of the inhibitor-sensitive phase of a biphasic fit): 69 ± 10 µM

Compound: NC(=O)C1=CN([C@@H]2O[C@H](COP(=O)(O)OP(=O)(O)OC[C@H]3O[C@@H](n4cnc5c(N)ncnc54)[C@H](O)[C@@H]3O)[C@@H](O)[C@H]2O)C=CC1 [NADH, nicotinamide adenine dinucleotide]
- Michaelis constant KmNADH, gFlHb ([3]; NO held at 2 μM, NADH up to 200 μM): 22 ± 4 µM
- Michaelis constants of Hmp (KmNO, KmNADH, KmO2) [4]: 4.8 µM

Compound: O=NO [Nitrite, nitrite]
- TN (turnover number from the inhibition fit), gFlHb [1, 8]: 23 ± 1 s⁻¹
- Ki [1, 9]: 32 ± 12 µM
- Effect on NOD activity of Hmp ([2]; concentrations up to 2 mM): not significantly affected; also recorded: no significant effect
- Kd [5]: 180 ± 20 µM
- Optical differences of Hmp in the presence of nitrite (KD) [6]: too small to permit any such calculation

Compound: O=O [oxygen]
- Michaelis constants of Hmp (KmNO, KmNADH, KmO2) [4]: approximately 100 μM
- Michaelis constant of gFlHb for oxygen [7]: 22 ± 7 µM

Compound: nitric oxide [NO]
- Michaelis constant KmNO, gFlHb ([3]; NADH held at 100 μM, NO up to 3 μM): 0.65 ± 0.09 µM
- Michaelis constants of Hmp (KmNO, KmNADH, KmO2) [4]: 0.28 µM
